Laboratory results taken from patent US10259808B2 (Genentech, Inc., priority 2015, dated 2019).

Target: T1, RORc ligand binding domain (Homo sapiens, UniProt P51449)
T1 sequence (P51449 269-508 limits assumed): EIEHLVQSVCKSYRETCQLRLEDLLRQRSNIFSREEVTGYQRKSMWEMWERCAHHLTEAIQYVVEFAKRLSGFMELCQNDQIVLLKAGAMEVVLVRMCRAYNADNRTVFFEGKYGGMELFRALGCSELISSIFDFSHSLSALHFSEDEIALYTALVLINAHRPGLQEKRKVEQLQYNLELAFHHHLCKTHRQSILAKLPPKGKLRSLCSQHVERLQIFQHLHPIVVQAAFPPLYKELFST
Assay: In vitro RORc ligand binding assay (25-[3H]hydroxycholesterol displacement)

`C[C@H]1CC[C@H](c2ccccc2)S(=O)(=O)N1Cc1cc(F)c([C@]2(Cn3cncn3)C[C@](C)(O)C2)cc1F` (racemic) [Example 182, 3-[2,5-difluoro-4-[[rac-(3S,6R)-3-methyl-1,1-dioxo-6-phenyl-thiazinan-2-yl]methyl]phenyl]-1-methyl-3-(1,2,4-triazol-1-ylmethyl)cyclobutanol] gave an IC50 of 0.0073 µM.

Work on `C[C@H]1CC[C@H](c2ccccc2)S(=O)(=O)N1Cc1cc(F)c([C@]2(Cn3ncccc3=O)C[C@](C)(O)C2)cc1F` (racemic) [Example 183, 2-[[1-[2,5-difluoro-4-[[rac-(3S,6R)-3-methyl-1,1-dioxo-6-phenyl-thiazinan-2-yl]methyl]phenyl]-3-hydroxy-3-methyl-cyclobutyl]methyl]pyridazin-3-one] yielded an IC50 of 0.17 µM.

For `C[C@H]1CC[C@H](c2ccccc2)S(=O)(=O)N1Cc1cc(F)c(C2(c3c[nH]c(=O)o3)CC(O)(CC3CC3)C2)cc1F` (mixture of isomers) [Example 184, 5-[3-(cyclopropylmethyl)-1-[2,5-difluoro-4-[[rac-(3S,6R)-3-methyl-1,1-dioxo-6-phenyl-thiazinan-2-yl]methyllphenyl]-3-hydroxy-cyclobutyl]-3H-oxazol-2-one], the IC50 was 0.0062 µM.

`C[C@H]1CC[C@H](c2ccccc2)S(=O)(=O)N1Cc1cc(F)c([C@]2(c3c[nH]c(=O)[nH]3)C[C@](C)(O)C2)cc1F` (racemic) [Example 185, 4-[1-[2,5-difluoro-4-[[rac-(3S,6R)-3-methyl-1,1-dioxo-6-phenyl-thiazinan-2-yl]methyl]phenyl]-3-hydroxy-3-methyl-cyclobutyl]-1,3-dihydroimidazol-2-one] gave an IC50 of 0.019 µM.

Work on `C[C@H]1CC[C@H](c2ccccc2)S(=O)(=O)N1Cc1cc(F)c([C@]2(c3nc(CO)n[nH]3)C[C@](C)(O)C2)cc1F` (racemic) [Example 186, 3-[2,5-difluoro-4-[[rac-(3S,6R)-3-methyl-1,1-dioxo-6-phenyl-thiazinan-2-yl]methyl]phenyl]-3-[3-(hydroxymethyl)-1H-1,2,4-triazol-5-yl]-1-methyl-cyclobutanol] yielded an IC50 of 0.0044 µM.

`C[C@H]1CC[C@H](c2ccccc2)S(=O)(=O)N1Cc1cc(F)c([C@]2(NCC3(C)COC3)C[C@](C)(O)C2)cc1F` (racemic) [Example 187, 3-[2,5-difluoro-4-[[rac-(3S,6R)-3-methyl-1,1-dioxo-6-phenyl-thiazinan-2-yl]methyl]phenyl]-1-methyl-3-[(3-methyloxetan-3-yl)methylamino]cyclobutanol] showed an IC50 of 0.01 µM.

`Cc1cc(NC(=O)C2(c3ccc(CN4[C@@H](C)CC[C@H](c5ccccc5)S4(=O)=O)c(F)c3)CCOCC2)n(C)n1` (stereo in doubt) [Example 14, N-(2,5-dimethylpyrazol-3-yl)-4-[3-fluoro-4-[[(3S,6R)-3-methyl-1,1-dioxo-6-phenyl-thiazinan-2-yl]methyl]phenyl]tetrahydropyran-4-carboxamide] gave an IC50 of 0.0636 µM.

`C[C@H]1CC[C@H](c2ccccc2)S(=O)(=O)N1Cc1cc(F)c(C2(NC(=O)C3CCOC3)COC2)cc1F` (stereo in doubt) [Example 129, N-[3-[2,5-difluoro-4-[[(3S,6R)-3-methyl-1,1-dioxo-6-phenyl-thiazinan-2-yl]methyl]phenyl]oxetan-3-yl]tetrahydrofuran-3-carboxamide] showed an IC50 of 0.0323 µM.

`Cc1n[nH]cc1C(=O)NC1(c2cc(F)c(CN3[C@@H](C)CC[C@H](c4ccccc4)S3(=O)=O)cc2F)COC1` (stereo in doubt) [Example 130, N-[3-[2,5-difluoro-4-[[(3S,6R)-3-methyl-1,1-dioxo-6-phenyl-thiazinan-2-yl]methyl]phenyl]oxetan-3-yl]-3-methyl-1H-pyrazole-4-carboxamide] was tested, and the IC50 was 0.126 µM.

`C[C@H]1CC[C@H](c2ccccc2)S(=O)(=O)N1Cc1cc(F)c(C2(NC(=O)c3cnn(C)c3)COC2)cc1F` (stereo in doubt) [Example 131, N-[3-[2,5-difluoro-4-[[(3S,6R)-3-methyl-1,1-dioxo-6-phenyl-thiazinan-2-yl]methyl]phenyl]oxetan-3-yl]-1-methyl-pyrazole-4-carboxamide] was tested, and the IC50 was 0.208 µM.

Compound `C[C@H]1CC[C@H](c2ccccc2)S(=O)(=O)N1Cc1cc(F)c(C2(NC(=O)c3ncc[nH]3)COC2)cc1F` (stereo in doubt) [Example 133, N-[3-[2,5-difluoro-4-[[(3S,6R)-3-methyl-1,1-dioxo-6-phenyl-thiazinan-2-yl]methyl]phenyl]oxetan-3-yl]-1H-imidazole-2-carboxamide] has an IC50 of 0.133 µM.

`C[C@H]1CC[C@H](c2ccccc2)S(=O)(=O)N1Cc1cc(F)c(C2(NC(=O)c3c[nH]cn3)COC2)cc1F` (stereo in doubt) [Example 134, N-[3-[2,5-difluoro-4-[[(3S,6R)-3-methyl-1,1-dioxo-6-phenyl-thiazinan-2-yl]methyl]phenyl]oxetan-3-yl]-1H-imidazole-4-carboxamide] gave an IC50 of 0.0507 µM.

Compound `C[C@H]1CC[C@H](c2ccccc2)S(=O)(=O)N1Cc1ccc(C2(C(=O)NC3COC3)CCOCC2)cc1F` [Example 1] has an IC50 of 0.11 µM.

`Cc1nocc1CNC(=O)C1(c2ccc(CN3[C@@H](C)CC[C@H](c4ccccc4)S3(=O)=O)c(F)c2)CCOCC1` [Example 2] gave an IC50 of 0.0638 µM.

Compound `C[C@H]1CC[C@H](c2ccccc2)S(=O)(=O)N1Cc1ccc(C2(C(=O)NCc3ccno3)CCOCC2)cc1F` [Example 4] has an IC50 of 0.0757 µM.

Compound `C[C@H]1CC[C@H](c2ccccc2)S(=O)(=O)N1Cc1ccc(C2(C(=O)NCCN3CCC(O)CC3)CCOCC2)cc1F` [Example 5] has an IC50 of 1.86 µM.

`C[C@H]1CC[C@H](c2ccccc2)S(=O)(=O)N1Cc1ccc(C2(C(=O)Nc3ncnn3C)CCOCC2)cc1F` [Example 7] showed an IC50 of 0.299 µM.

With `C[C@H]1CC[C@H](c2ccccc2)S(=O)(=O)N1Cc1ccc(C2(C(=O)NC3CCOC3)CCOCC2)cc1F` (stereo partly drawn) [Example 8, 4-[3-fluoro-4-[[(3S,6R)-3-methyl-1,1-dioxo-6-phenyl-thiazinan-2-yl]methyl]phenyl]-N-tetrahydrofuran-3-yl-tetrahydropyran-4-carboxamide] the IC50 was 0.101 µM.

Compound `C[C@H]1CC[C@H](c2ccccc2)S(=O)(=O)N1Cc1ccc(C2(C(=O)NC3(C)COC3)CCOCC2)cc1F` [Example 9, 4-[3-fluoro-4-[[(3S,6R)-3-methyl-1,1-dioxo-6-phenyl-thiazinan-2-yl]methyl]phenyl]-N-(3-methyloxetan-3-yl)tetrahydropyran-4-carboxamide] has an IC50 of 0.144 µM.

`C[C@H]1CC[C@H](c2ccccc2)S(=O)(=O)N1Cc1ccc(C2(C(=O)NCc3cnccn3)CCOCC2)cc1F` [Example 10] was tested, and the IC50 was 0.173 µM.

With `C[C@H]1CC[C@H](c2ccccc2)S(=O)(=O)N1Cc1ccc(C2(C(=O)NCC3CCOC3)CCOCC2)cc1F` (some centres unmarked) [Example 11] the IC50 was 0.161 µM.

In the case of `CCn1nccc1NC(=O)C1(c2ccc(CN3[C@@H](C)CC[C@H](c4ccccc4)S3(=O)=O)c(F)c2)CCOCC1` [Example 13], the IC50 is reported as 0.0632 µM.

`CNC(=O)c1nc(CNC(=O)C2(c3ccc(CN4[C@@H](C)CC[C@H](c5ccccc5)S4(=O)=O)c(F)c3)CCOCC2)no1` [Example 15, 3-[[[4-[3-fluoro-4-[[(3S,6R)-3-methyl-1,1-dioxo-6-phenyl-thiazinan-2-yl]methyl]phenyl]tetrahydropyran-4-carbonyl]amino]methyl]-N-methyl-1,2,4-oxadiazole-5-carboxamide] showed an IC50 of 0.0094 µM.

Work on `C[C@H]1CC[C@H](c2ccccc2)S(=O)(=O)N1Cc1ccc(C2(C(=O)NCc3cn[nH]c3)CCOCC2)cc1F` [Example 17, 4-[3-fluoro-4-[[(3S,6R)-3-methyl-1,1-dioxo-6-phenyl-thiazinan-2-yl]methyl]phenyl]-N-(1H-pyrazol-4-ylmethyl)tetrahydropyran-4-carboxamide] yielded an IC50 of 0.0325 µM.

Compound `Cc1cc(N)n(C(=O)C2(c3ccc(CN4[C@@H](C)CC[C@H](c5ccccc5)S4(=O)=O)c(F)c3)CCOCC2)n1` [Example 19] has an IC50 of 0.0123 µM.

In the case of `Cc1cc(N)nn1C(=O)C1(c2ccc(CN3[C@@H](C)CC[C@H](c4ccccc4)S3(=O)=O)c(F)c2)CCOCC1` [Example 21, (3-amino-5-methyl-pyrazol-1-yl)-[4-[3-fluoro-4-[[(3S,6R)-3-methyl-1,1-dioxo-6-phenyl-thiazinan-2-yl]methyl]phenyl]tetrahydropyran-4-yl]methanone], the IC50 is reported as 0.0019 µM.

For `C[C@H]1CC[C@H](c2ccccc2)S(=O)(=O)N1Cc1ccc(C2(c3nc(C4CC4)no3)CCOCC2)cc1F` [Example 23], the IC50 was 0.0143 µM.

In the case of `C[C@H]1CC[C@H](c2ccccc2)S(=O)(=O)N1Cc1ccc(C2(CN3CCOCC3)CCOCC2)cc1F` [Example 24], the IC50 is reported as 0.0111 µM.

`CC(=O)OCc1nc(C2(c3ccc(CN4[C@@H](C)CC[C@H](c5ccccc5)S4(=O)=O)c(F)c3)CCOCC2)no1` [Example 27, [3-[4-[3-fluoro-4-[[(3S,6R)-3-methyl-1,1-dioxo-6-phenyl-thiazinan-2-yl]methyl]phenyl]tetrahydropyran-4-yl]-1,2,4-oxadiazol-5-yl]methyl acetate] showed an IC50 of 0.109 µM.

In the case of `C[C@H]1CC[C@H](c2ccccc2)S(=O)(=O)N1Cc1ccc(C2(c3noc(CN(C)C)n3)CCOCC2)cc1F` [Example 28, 1-[3-[4-[3-fluoro-4-[[(3S,6R)-3-methyl-1,1-dioxo-6-phenyl-thiazinan-2-yl]methyl]phenyl]tetrahydropyran-4-yl]-1,2,4-oxadiazol-5-yl]-N,N-dimethyl-methanamine], the IC50 is reported as 0.465 µM.

`C[C@H]1CC[C@H](c2ccccc2)S(=O)(=O)N1Cc1ccc(C2(c3noc(CO)n3)CCOCC2)cc1F` [Example 29, [3-[4-[3-fluoro-4-[[(3S,6R)-3-methyl-1,1-dioxo-6-phenyl-thiazinan-2-yl]methyl]phenyl]tetrahydropyran-4-yl]-1,2,4-oxadiazol-5-yl]methanol] showed an IC50 of 0.0636 µM.

For `C[C@H]1CC[C@H](c2ccccc2)S(=O)(=O)N1Cc1ccc(C2(c3noc(=O)[nH]3)CCOCC2)cc1F` [Example 30, 3-[4-[3-fluoro-4-[[(3S,6R)-3-methyl-1,1-dioxo-6-phenyl-thiazinan-2-yl]methyl]phenyl]tetrahydropyran-4-yl]-4H-1,2,4-oxadiazol-5-one], the IC50 was 0.245 µM.
